Measured values as given in patent publication US20230390386A1, “REPLICATION-DEFECTIVE VACCINES AND USES THEREOF” (priority 2020, published 2023).

Tests used:
AD169-GFP = AD169-GFP fluorescence microscopy in ARPE-19 cells after CM treatment of virus; format: cell-based, human cytomegalovirus
Description: Fluorescence microscopy: The AD169-GFP viruses were incubated with 100 μM, 10 μM, 1.0 μM, and 0.1 μM of centanamycin as described above. After treatment, the AD169-GFP viruses were washed 3 times with the cDMEM and added to the ARPE-19 cells at an MOI of 0.05. The virus growth was analyzed every day by fluorescence microscopy. In a control experiment, the viruses were only treated with the PET vehicle.
To understand the pathology of CM treated virus, a GFP-expressing human cytomegalovirus, AD169-GFP, was used with microscopic imaging to visually assess the ability of treated viruses to infect cell.

E. coli [1] = assay: CM treatment of E. coli, colony count on LB agar plates; format: cell-based; details: three hours at room temperature
Description: CM treatment of E. coli: Overnight cultures of E. coli culture were diluted 200 times in LB media to make final volume of 1 ml and treated with different concentrations (100 μM, 10 μM, 1 μM, and 0.1 μM) of centanamycin for three hours at room temperature. The treated E. coli cells were then centrifuged at 10,000 rpm for 1 min, supernatant was removed and the pellet was resuspended in 100 μl of LB and plated on the LB agar plate without any antibiotic. The plates were then incubated at 37° C. for 16 hours. To determine the effect of centanamycin, the number of colonies were counted on each plate.
First, a culture of E. coli that had been established by an overnight incubation was diluted 200 times in LB media to make final volume to be 1 ml, followed by treatment with different concentrations of centanamycin (100 μM, 10 μM, 1 μM, and 0.1 μM) for three hours at room temperature. The treated cells were then centrifuged at 10,000 rpm for 1 min, supernatant was removed and the pellet was resuspended in 100 μl of LB and plated on LB agar plates without any antibiotic. The plates were then incubated at 37° C. for 16 hours. To determine the effect of centanamycin, the number of colonies on each plate were counted (FIGS. 6A-6B). […] Some of these bacteria were replication-defective and attenuated, making them suitable for use as vaccines.

E. coli [2] = assay: E. coli growth assay (OD) after CM treatment; format: cell-based; details: two hours at RT
Description: […] Replicate samples were performed in triplicate. The treated bacterial cells were then added to 96 well, round-bottom plates, which were then incubated at 37° C. in a shaking incubator. The bacterial OD was measured in Glomax Explorer (Promega) every hour to determine the bacterial growth.
In order to observe the effect of CM on the rate of bacterial growth, a series of studies were conducting observing cultures of treated E. coli (FIG. 7). […] Each treatment condition was repeated in triplicate. The treated E. coli were then added to 96 well round-bottom plates, and cultured at 37° C. in a shaking incubator. The bacterial OD was measured by a Glomax Explorer (Promega) every hour to determine the rate bacterial growth. […] Each data point on the graph in FIG. 7 represents the average of three separate measurements.

MCMV-Luc = assay: In vivo analysis of CM treated MCMV-Luc injected into mice (IVIS); details: 1×10^5 pfu intraperitoneally
Description: In vivo experiments: To check the efficacy of CM in the animal model, mouse cytomegalovirus expressing the luciferase gene (MCMVLuc) was used. […] The 25×10^6 PFU/ml of MCMVLuc viruses were treated with 10 μM, 1.0 μM, and 0.1 μM of CM for two hours at room temperature. The MCMVLuc viruses were washed with RPMI to remove CM and suspended in 1 ml of incomplete RPMI. Thereafter, 200 μl of the CM treated MCMVLuc was injected into five mice per group. The luciferase activity was measured every other day using bioluminescence assay by an in vivo imaging system (IVIS). Briefly, the mice were anesthetized using isoflurane and injected with the luciferin substrate. The injected mice were incubated at RT for five minutes and luciferase activity was determined using IVIS. In control experiments, the MCMVLuc viruses were treated with PET only and followed in a similar way as described above.
The MCMV-Luc virus was purified using a sucrose gradient and titrated. Following purification, 5×10^5 pfu of MCMV-Luc was treated with 10 μM, 1 μM and 0.1 μM of CM for 2 hours at RT. Thereafter, treated 1×10^5 pfu were injected intraperitoneally into five mice for each concentration. […] During this attenuated infection, the mouse immune system had sufficient time to recognize the virus as a foreign antigen and generate antibodies specific for the virus. Moreover, since the attenuated MCMV-Luc was whole viral particles, they contained all possible antigens relevant to priming a protective humeral response. As expected, the MCMV-Luc viral particles that were not treated with CM treatment replicated rapidly in the host mice, as observed by IVIS imaging in FIG. 4B.

HCMV gDNA = assay: Analysis of CM-treated viral gDNA (agarose gel, EcoR1 digestion, 50° C. incubation); design: species or system human cytomegalovirus
Description: Analysis of CM and viral gDNA: To see any effect of CM on the HCMV gDNA, the gDNA was analyzed by agarose gel electrophoresis, restriction digestion, and thermal incubation at 50° C. The HCMV was grown in ARPE-19 cells and virus particles were purified through sucrose gradient using ultracentrifugation. HCMV gDNA was extracted and concentration was determined by OD at 260/280. Approximately, 10 μg of HCMV gDNA was incubated with 10 μM CM at RT for 1 hour and 10 μg of HCMV gDNA was treated with vehicle control without CM. The treated gDNA was analyzed by the agarose gel electrophoresis to see any effect of CM on the HCMV gDNA. In a separate experiment, the […] treated HCMV gDNA was incubated at 50° C. for 30 minutes to check the alkylation of DNA is thermolabile or not. Untreated HCMV gDNA was also treated similarly. In another, 3 μg of CM treated and untreated HCMV gDNA was digested with EcoR1 overnight at 37° C. and analyzed by 0.6% agarose gel electrophoresis.
To understand the mechanism behind CM mediated attenuation of the virus, CM-treated viral gDNA was analyzed using agarose gel electrophoresis, restriction digestion, and heat-labile fragmentation assays. The AD169 viral gDNA was treated with 1 μM CM for two hours at RT and then separated with a 0.6% agarose gel. Untreated AD169 viral gDNA was used as a control. […] To further understand the effect of CM on the viruses, viral gDNA was isolated and treated with CM for two hours at RT followed by digestion with the restriction enzymes EcoR1. […] However, the CM treated viruses were alkylated efficiently as compared to the control which was observed by the DNA fragmentation during incubation at 50° C. while control untreated viruses have intact DNA (FIG. 3C).

COc1cc2cc(C(=O)Nc3cc(N)c4ccccc4c3CCCl)[nH]c2c(OC)c1OC [CM, centanamycin]
AD169-GFP infection and replication (GFP fluorescence) (AD169-GFP; virus treated with 1 μM CM): detected in the infected cells but did not replicate
AD169-GFP infection and replication (GFP fluorescence) (AD169-GFP; virus treated with 10 μM CM): not able to infect the cells
AD169-GFP infection and replication (GFP fluorescence) (AD169-GFP; virus treated with 100 μM CM): not detected in the infected cells
E. coli colonies on LB agar plate after 16 hours (E. coli [1]; 0.1 μM): reduce the number of bacterial colonies on the agar plate in a dose dependent manner
E. coli colonies on LB agar plate after 16 hours (E. coli [1]; 1 μM): reduce the number of bacterial colonies on the agar plate in a dose dependent manner
E. coli colonies on LB agar plate after 16 hours (E. coli [1]; 10 μM): reduce the number of bacterial colonies on the agar plate in a dose dependent manner
E. coli colonies on LB agar plate after 16 hours (E. coli [1]; 100 μM): did not grow on the LB agar plate
E. coli growth in culture (OD) (E. coli [2]; 0.01 μM CM): able to grow slowly in the culture
E. coli growth in culture (OD) (E. coli [2]; 0.1 μM CM): able to grow slowly in the culture
E. coli growth in culture (OD) (E. coli [2]; 10 μM CM): did not grow
E. coli growth in culture (OD) (E. coli [2]; 100 μM CM): did not grow in the culture
MCMV-Luc infection and replication in mice (IVIS) (MCMV-Luc; virus treated with 0.1 μM CM): able to infect the mice but did not replicate further from the site of infection
MCMV-Luc infection and replication in mice (IVIS) (MCMV-Luc; virus treated with 1 μM CM): able to infect the mice but did not replicate further from the site of infection
MCMV-Luc infection and replication in mice (IVIS) (MCMV-Luc; virus treated with 10 μM CM): did not infect the mice
Viral gDNA bands on 0.6% agarose gel, treated versus untreated (HCMV gDNA; AD169 viral gDNA, 1 μM CM, two hours at RT): no big differences in the viral gDNA bands, mobility, and gel pattern
EcoR1 digestion pattern of CM treated viral gDNA (HCMV gDNA; CM two hours at RT, then EcoR1): no major missing bands
Thermolabile alkylation: state of CM treated viral DNA on incubation at 50° C. (HCMV gDNA; incubation at 50° C.): experienced fragmentation at 50 °C
